Measured values taken from US4153709A, “N-Heterocyclic ureas as immune regulants” (Eli Lilly and Company, priority 1977, dated 1979).

What follows are compounds tested on antibody response to sheep blood cells (hemaglutination titer) (assay: Immune regulating test: suppression of hemaglutination titer by 4-fold factor in mice (i.p. drug, i.p. sheep blood cells), Tables 1-15). Settings: Mus musculus, ip, 192 h, × 3, intraperitoneal, minimum dose to suppress the hemaglutination titer by a 4-fold factor, 8 days after antigen, read-out: Immuno-Suppressant ED4-Fold.
Type: in vivo, Swiss mice
Method: The ability of compounds according to the above formulas to alter immune mechanisms in a host animal was measured by their activity according to the following test. Groups of five 20-gram Swiss mice were injected intraperitoneally with standardized suspensions of an antigen--in this instance sheep blook cells. […] Eight days after injection of the antigen, the mice were bled and the sera from each group pooled. Antibody determinations were made on the serum pools by a hemaglutination pattern procedure and comparisons made between treated and control animals. In Tables 1-18 which follow, the activity of the compounds listed therein is given in terms of the minimum dose of drug necessary to suppress the hemaglutination titer by a 4-fold factor in the treated mice as compared with control titers.

| Compound | minimal effective dose |
| --- | --- |
| O=C(Nc1cccc(Cl)c1)Nc1nc2c(ccc3ccccc32)s1 [Table 14: m-chlorophenyl] | < 1.6 mg/kg |
| COc1ccc2nc(NC(=O)Nc3cccc(C)c3)sc2c1 [Table 11: m-tolyl, 6-CH3 O, S] | < 25 mg/kg |
| O=C(Nc1cccc(Cl)c1)Nc1nc2c(Cl)cccc2s1 [Table 11: m-chlorophenyl, 4-Cl, S] | < 50 mg/kg |
| COc1ccccc1NC(=O)Nc1nc2cc(Cl)ccc2[nH]1 [Table 2: o-anisyl] | < 6.2 mg/kg |
| O=C(Nc1nc2cc(C(F)(F)F)ccc2[nH]1)Nc1cccc2ccccc12 [Table 4: α-naphthyl, CF3] | < 50 mg/kg |
| O=C(Nc1ccc(F)cc1)Nc1nc2c(ccc3ccccc32)s1 [Table 14: p-fluorophenyl] | 12.5 mg/kg |
| O=C(Nc1ccccc1)Nc1nc2ccc3ccccc3c2s1 [Table 15: phenyl] | 0.8 mg/kg |
| O=C(Nc1ccc(Cl)cc1)Nc1nc2ccccc2s1 [Table 11: p-chlorophenyl, H, S] | < 6.2 mg/kg |
| Cc1ccc(NC(=O)Nc2nc3ccccc3[nH]2)cc1 [Table 1: p-tolyl, H] | 6.2 mg/kg |
| Cc1cc2nc(NC(=O)Nc3ccccc3F)sc2cc1C | < 1.6 mg/kg |
| O=C(Nc1ccc(Br)cc1)Nc1nc2ccc3ccccc3c2s1 [Table 15: p-bromophenyl] | 50 mg/kg |
| Cc1ccc2[nH]c(NC(=O)Nc3ccccc3)nc2c1 [Table 4: phenyl, CH3] | 100 mg/kg |
| Cc1cc2nc(NC(=O)Nc3cccc4ccccc34)[nH]c2cc1C [Table 5: α-naphthyl, CH3, CH3] | 50 mg/kg |
| CN(C(=O)Nc1ccccc1)c1nc2ccccc2[nH]1 [Table 7: phenyl, H] | 50 mg/kg |
| CCOC(=O)c1ccc2[nH]c(NC(=O)Nc3ccccc3Cl)nc2c1 [Table 3: o-chlorophenyl] | 0.4 mg/kg |
| Cc1cccc(NC(=O)Nc2nc3cc(Cl)ccc3[nH]2)c1 [Table 2: m-tolyl] | 25 mg/kg |
| Cc1ccc(NC(=O)Nc2nc3c(ccc4ccccc43)s2)cc1 [Table 14: p-tolyl] | 6.2 mg/kg |
| O=C(Nc1cccc(Cl)c1)Nc1nc2cc(C(F)(F)F)ccc2[nH]1 [Table 4: am-chlorophenyl, CF3] | 50 to 200 mg/kg |
| O=C(Nc1nc2ccccc2[nH]1)Nc1ccccc1Cl [Table 1: o-chlorophenyl, H] | 12.5 mg/kg |
| CCOC(=O)c1ccc2[nH]c(NC(=O)Nc3cccc4ccccc34)nc2c1 [Table 3: α-naphthyl] | 6.2 mg/kg |
| O=C(Nc1ccc(F)cc1)Nc1nc2ccccc2s1 [Table 11: p-fluorophenyl, H, S] | < 25 mg/kg |

| Compound | minimal effective dose |
| --- | --- |
| O=C(Nc1nc2ccccc2[nH]1)Nc1ccccc1F [Table 1: o-fluorophenyl, H] | 1.6 mg/kg |
| Cc1cccc(NC(=O)Nc2nc3cc(C)c(C)cc3[nH]2)c1 [Table 5: m-tolyl, CH3, CH3] | 12.5 mg/kg |
| Cc1cc2nc(NC(=O)Nc3cccc(Cl)c3)sc2cc1C | 100 mg/kg |
| O=C(Nc1cccc2ccccc12)Nc1nc2ccccc2n1-c1ccccc1 [Table 8: α-naphthyl, phenyl] | 100 mg/kg |
| O=C(Nc1ccccc1)Nc1nc2cc3ccccc3cc2[nH]1 [Table 9: phenyl] | 25 mg/kg |
| O=C(Nc1ccc(Cl)cc1)Nc1nc2cc(Cl)ccc2[nH]1 [Table 2: p-chlorophenyl] | 6.2 mg/kg |
| COc1ccc(NC(=O)Nc2nc3cc(C)c(C)cc3[nH]2)cc1 [Table 5: p-anisyl, CH3, CH3] | 12.5 mg/kg |
| CN(C(=O)Nc1ccc(Cl)cc1)c1nc2ccccc2s1 [Table 12: p-chlorophenyl] | < 50 mg/kg |
| O=C(Nc1nc2ccccc2o1)Nc1cccc2ccccc12 [Table 11: α-naphthyl, H, O] | 50 mg/kg |
| O=C(Nc1nc2cc(Cl)c(Cl)cc2[nH]1)Nc1cccc2ccccc12 [Table 5: α-naphthyl, Cl, Cl] | > 12.5 mg/kg |
| CN(C(=O)Nc1ccc(Cl)cc1)c1nc2ccccc2[nH]1 [Table 7: p-chlorophenyl, H] | 50 mg/kg |
| Cn1c(NC(=O)Nc2cccc(Cl)c2)nc2ccccc21 [Table 8: m-chlorophenyl, methyl] | 6.2 mg/kg |
| O=C(Nc1ccccc1)Nc1nc2cc(Cl)c(Cl)cc2[nH]1 [Table 5: phenyl, Cl, Cl] | 12.5 mg/kg |
| CCOC(=O)c1ccc2[nH]c(NC(=O)Nc3cccc(C)c3)nc2c1 [Table 3: m-tolyl] | < 12.5 mg/kg |
| Cc1cc2nc(NC(=O)Nc3ccccc3C)sc2cc1C [Table 11: o-tolyl, 5,6-dimethyl, S] | < 25 mg/kg |
| COc1ccc2nc(NC(=O)Nc3ccccc3Cl)sc2c1 [Table 11: o-chlorophenyl, 6-CH3 O, S] | < 50 mg/kg |
| Cc1ccc(NC(=O)Nc2nc3ccccc3s2)cc1 [Table 11: p-tolyl, H, S] | 100 mg/kg |
| Cc1cc2nc(NC(=O)Nc3cccc4ccccc34)sc2cc1C [Table 11: α-naphthyl, 5,6-dimethyl, S] | 50 mg/kg |
| CCOC(=O)c1ccc2[nH]c(NC(=O)Nc3cccc(Cl)c3)nc2c1 [Table 3: m-chlorophenyl] | 50 mg/kg |
| O=C(Nc1ccccc1)Nc1nc2cc(Cl)ccc2o1 [Table 11: phenyl, 5-Cl, O] | 200 mg/kg |
| O=C(Nc1nc2cc(Cl)ccc2[nH]1)Nc1ccccc1F [Table 2: o-fluorophenyl] | < 100 mg/kg |

| Compound | minimal effective dose |
| --- | --- |
| O=C(Nc1nc2c([N+](=O)[O-])cccc2[nH]1)Nc1ccccc1F [Table 6: 4(7), o-fluorophenyl] | 3.1 mg/kg |
| O=C(Nc1ccccc1)Nc1nc2cc(C(F)(F)F)ccc2[nH]1 [Table 4: phenyl, CF3] | 12.5 mg/kg |
| O=C(Nc1nc2ccccc2[nH]1)Nc1cccc2ccccc12 [Table 1: α-naphthyl, H, N-(2-Benzimidazolyl)-N'-naphthylurea] | 3.1 mg/kg |
| Cc1cc2nc(NC(=O)Nc3cc(Cl)ccc3Cl)sc2cc1C | < 12.5 mg/kg |
| O=C(Nc1ccccc1)Nc1nc2c(ccc3ccccc32)[nH]1 [Table 10: phenyl] | 50 mg/kg |
| O=C(Nc1ccc(Cl)c(Cl)c1)Nc1nc2c(ccc3ccccc32)s1 [Table 14: 3,4-dichlorophenyl] | 3.1 mg/kg |
| O=C(Nc1ccccc1)Nc1nc2ccccc2[nH]1 [Table 1: phenyl, H, 1-(2-benzimidazolyl)-3-phenyl urea] | 12.5 mg/kg |
| Cc1cc2nc(NC(=O)Nc3ccc(Cl)cc3)sc2cc1C | 25 mg/kg |
| CCOc1ccccc1NC(=O)Nc1nc2ccccc2s1 [Table 11: o-ethoxyphenyl, H, S] | < 50 mg/kg |
| CN(C(=O)Nc1cccc(Cl)c1)c1nc2ccccc2[nH]1 [Table 7: m-chlorophenyl, H] | 25 mg/kg |
| O=C(Nc1cccc(C(F)(F)F)c1)Nc1nc2ccccc2[nH]1 [Table 1: m-trifluoromethylphenyl, H] | 100 mg/kg |
| Cc1cc2nc(NC(=O)Nc3ccc(Br)cc3)[nH]c2cc1C [Table 5: p-bromophenyl, CH3, CH3] | 12.5 mg/kg |
| Cc1cc2nc(NC(=O)Nc3cc(Cl)ccc3Cl)[nH]c2cc1C [Table 5: 2,5-dichlorophenyl, CH3, CH3] | < 25 mg/kg |
| Cc1ccc(NC(=O)Nc2nc3cc(C)c(C)cc3s2)cc1 [Table 11: p-tolyl, 5,6-dimethyl, S] | 100 mg/kg |
| O=C(Nc1cccc(Cl)c1)Nc1nc2ccccc2[nH]1 [Table 1: m-chlorophenyl, H] | 3.1 mg/kg |
| CCOC(=O)c1ccc2[nH]c(NC(=O)Nc3cccc(C(F)(F)F)c3)nc2c1 [Table 3: m-trifluoromethylphenyl] | 100 mg/kg |
| Cc1ccc(NC(=O)Nc2nc3ccc4ccccc4c3s2)cc1 [Table 15: p-tolyl] | > 25 mg/kg |
| Cc1cc2nc(NC(=O)Nc3ccccc3)sc2cc1C [Table 11: phenyl, 5,6-dimethyl, S] | 100 mg/kg |
| O=C(Nc1nc2cc(Cl)ccc2[nH]1)Nc1ccccc1Cl [Table 2: o-chlorophenyl] | 100 mg/kg |
| Cn1c(NC(=O)Nc2ccccc2)nc2ccccc21 [Table 8: phenyl, methyl] | 3.1 mg/kg |

Each compound was assayed on antibody to sheep red blood cells (assay: 75 percent reduction of control antibody titer in mice by subcutaneous, percutaneous and oral routes (Table 16)). Settings: Mus musculus, Erythrocyte, sc; subcutaneous; *seven doses, once daily, commencing the day of antigen administration; read-out: Lowest Dose Producing 75% Immunosuppression, Subcutaneous.
Type: in vivo, male Swiss mice
Method: Subcutaneous, percutaneous, and oral activity have been achieved as indicated in Table 16 which follows employing representative compounds from the above entitled application. […] Except as indicated, the tests were performed using groups of five 20-gram male Swiss mice injected with 5×10^7 sheep red blood cells intravenously for each drug level. Ten (daily) administrations of drug were made commencing three days prior to red blood cell injection. On the day following the final treatment (7 days after red blood cell injection) the animals were bled by cardiac puncture, the sera from each five-mouse-group were pooled, and antibody titers of these serum pools and corresponding serum pools from control (untreated) mouse groups were determined. The results are expressed as the minimum drug dose effecting 75 percent reduction of control antibody titer: […]

| Compound | minimal effective dose |
| --- | --- |
| O=C(Nc1ccccc1)Nc1nc2ccccc2[nH]1 [Table 1: phenyl, H, 1-(2-benzimidazolyl)-3-phenyl urea] | 31.5 mg/kg |
